From ChEMBL document CHEMBL2074401, “Difloxacin reverses multidrug resistance in HL-60/AR cells that overexpress the multidrug resistance-related protein (MRP) gene” (Oncol Res, 1995)

Target: Multidrug resistance-associated protein 1 (Homo sapiens, UniProt P33527)
Experiment: TP_TRANSPORTER: increase in Daunorubicin, Adriamycin and Vincristine intracellular accumulation (Daunorubicin: 4 ug/mL, Difloxacin: 62.5 uM) in HL-60/AR cells
Format: functional, cell-based

Sequence of Multidrug resistance-associated protein 1 (P33527 whole entry): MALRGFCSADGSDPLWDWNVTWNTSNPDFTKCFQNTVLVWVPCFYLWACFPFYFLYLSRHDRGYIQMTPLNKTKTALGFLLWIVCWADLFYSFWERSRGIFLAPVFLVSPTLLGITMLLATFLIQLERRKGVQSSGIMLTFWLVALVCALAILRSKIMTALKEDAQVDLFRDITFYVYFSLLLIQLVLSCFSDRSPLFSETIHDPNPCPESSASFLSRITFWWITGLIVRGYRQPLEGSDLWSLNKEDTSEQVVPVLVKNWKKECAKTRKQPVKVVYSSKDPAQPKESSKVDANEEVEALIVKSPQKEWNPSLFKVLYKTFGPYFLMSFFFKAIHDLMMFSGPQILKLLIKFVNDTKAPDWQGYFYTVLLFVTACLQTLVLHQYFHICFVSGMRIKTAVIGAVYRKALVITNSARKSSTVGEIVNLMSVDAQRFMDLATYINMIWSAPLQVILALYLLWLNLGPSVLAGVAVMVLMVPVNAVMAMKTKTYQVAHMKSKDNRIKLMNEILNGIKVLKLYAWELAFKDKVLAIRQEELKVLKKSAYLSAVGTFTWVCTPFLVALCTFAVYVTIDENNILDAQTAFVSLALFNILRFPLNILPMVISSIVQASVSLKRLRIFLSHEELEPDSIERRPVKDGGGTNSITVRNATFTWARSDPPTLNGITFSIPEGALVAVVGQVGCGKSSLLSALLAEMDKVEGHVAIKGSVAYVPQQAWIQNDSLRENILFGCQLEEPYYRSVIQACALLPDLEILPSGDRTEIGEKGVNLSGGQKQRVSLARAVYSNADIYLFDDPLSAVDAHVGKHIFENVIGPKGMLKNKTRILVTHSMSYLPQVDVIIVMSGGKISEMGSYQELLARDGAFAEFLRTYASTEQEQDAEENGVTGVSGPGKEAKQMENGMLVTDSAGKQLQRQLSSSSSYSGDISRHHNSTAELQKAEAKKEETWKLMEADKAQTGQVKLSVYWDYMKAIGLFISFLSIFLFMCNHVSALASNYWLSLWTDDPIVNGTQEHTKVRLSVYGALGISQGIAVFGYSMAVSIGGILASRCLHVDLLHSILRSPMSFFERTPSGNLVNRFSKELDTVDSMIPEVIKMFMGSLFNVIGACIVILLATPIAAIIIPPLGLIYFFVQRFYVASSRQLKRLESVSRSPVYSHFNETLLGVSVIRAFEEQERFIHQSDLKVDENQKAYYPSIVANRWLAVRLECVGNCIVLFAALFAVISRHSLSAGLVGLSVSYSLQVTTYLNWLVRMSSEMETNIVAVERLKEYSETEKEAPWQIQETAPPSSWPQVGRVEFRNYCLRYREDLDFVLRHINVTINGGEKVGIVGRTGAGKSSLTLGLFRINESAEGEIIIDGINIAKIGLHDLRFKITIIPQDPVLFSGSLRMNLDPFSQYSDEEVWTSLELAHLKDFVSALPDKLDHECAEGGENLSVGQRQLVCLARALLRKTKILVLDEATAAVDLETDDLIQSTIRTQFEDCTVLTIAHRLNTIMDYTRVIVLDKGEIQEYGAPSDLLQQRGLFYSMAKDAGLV

Activity: inhibitor [1.3 to 2.9-fold]
SMILES: CN1CCN(c2cc3c(cc2F)c(=O)c(C(=O)O)cn3-c2ccc(F)cc2)CC1 [DIFLOXACIN]
